Test results published in paper PMC9863764, “Roles of Human Liver Cytochrome P450 Enzymes in Tenatoprazole Metabolism” (Pharmaceutics, 2022).
“And” between values parts separate entries of the source, which are not always exact repeats. Equal values may be shown once.

What was measured:
Assay type in all cases: in vitro ADME
CYP1B1 = biological target: T1, CYP1B1 (Homo sapiens, UniProt Q16678); assay: Tenatoprazole oxidation by recombinant CYP1B1; settings: substrate tenatoprazole 0.10 mM, 0.20 μM CYP1B1; no apparent formation
T1 construct: made in house; host or cells: Escherichia coli (membrane fractions)
T1 sequence (Q16678 1-543): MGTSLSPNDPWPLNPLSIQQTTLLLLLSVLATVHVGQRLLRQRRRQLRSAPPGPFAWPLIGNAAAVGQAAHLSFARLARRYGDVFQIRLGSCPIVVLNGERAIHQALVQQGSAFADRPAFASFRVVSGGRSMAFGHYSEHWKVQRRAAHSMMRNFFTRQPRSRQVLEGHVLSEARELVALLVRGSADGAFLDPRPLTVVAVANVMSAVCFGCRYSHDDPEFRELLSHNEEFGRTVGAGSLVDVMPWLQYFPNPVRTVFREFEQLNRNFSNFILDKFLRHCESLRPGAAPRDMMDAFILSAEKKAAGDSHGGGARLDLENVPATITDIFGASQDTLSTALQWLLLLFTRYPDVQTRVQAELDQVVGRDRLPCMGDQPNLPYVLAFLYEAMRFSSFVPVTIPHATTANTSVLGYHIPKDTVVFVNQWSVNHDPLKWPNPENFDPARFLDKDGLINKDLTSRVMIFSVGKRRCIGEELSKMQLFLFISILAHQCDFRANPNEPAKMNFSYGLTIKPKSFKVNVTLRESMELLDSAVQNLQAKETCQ
Method: Pooled liver microsomes from human samples were obtained from ThermoFisher Scientific (Waltham, MA, USA). Recombinant human P450s were heterologously expressed in Escherichia coli with a pCW vector containing human P450 cDNA (CYP 3A4, 2C9, 2C19, 1A2, 1B1, 2E1, 2D6, and 2A6) and rat NADPH-P450 reductase (CPR). Membrane fractions expressing both P450 and CPR of E. coli were prepared as described previously and were used for the catalytic activity assays.
The reaction mixture included 0.20 μM P450, 0.40 μM CPR, and tenatoprazole (0.10 mM) in 0.25 mL of 0.10 M potassium phosphate buffer (pH 7.4). The reaction was started by adding NGS and the incubation was continued for the indicated time at 37 °C. Incubation was then stopped by adding ice-chilled ethyl acetate (0.50 mL) and omeprazole (IS) was added to a final concentration of 20 μM. The mixtures were vortexed for 2 min, centrifuged at 1000× g for 20 min, and then the organic layer was taken for drying under nitrogen gas stream. The residues were dissolved in 180 μL of HPLC mobile phase and 30 μL was injected onto a Gemini C18 column (4.6 × 150 mm, 5 μm; Phenomenex, Torrance, CA, USA). The products formed were analyzed by HPLC at A302. The HPLC profile of the authentic chemicals (i.e., tenatoprazole, tenatoprazole sulfide, and their metabolites) were used to identify the major metabolites of tenatoprazole and tenatoprazole sulfide produced by the recombinant P450s.
Figure S6. HPLC analyses of the products derived from the oxidation of tenatoprazole catalyzed by recombinant human P450s. The reaction mixture included 0.20 μM P450, 0.40 μM CPR, and 0.10 mM tenatoprazole in 0.25 mL of potassium phosphate buffer (0.10 M, pH 7.4). The reaction was started by adding an NGS at 37 °C for 60 min. (A) CYP1A2; (B) CYP1B1; (C) CYP2A6; (D) CYP2C9; (E) CYP2D6; (F) CYP2E1. The arrows with solid and broken lines indicate the retention times of 5’-OH tenatoprazole (6.6 min) and 5’-OH tenatoprazole sulfide (8.4 min), respectively.
(1 picture or pasted object on this page, not shown here)

human CYP3A4 = biological target: T2, human CYP3A4 (Homo sapiens, UniProt P08684); assay: Steady-state kinetics of tenatoprazole oxidation by recombinant CYP3A4; settings: for kcat of product formation: substrate tenatoprazole (1–500 μM), recombinant CYP3A4 0.20 μM, 37 °C, 5 min, label = product formed
T2 construct: made in house; host or cells: Escherichia coli (membrane fractions)
Method: Pooled liver microsomes from human samples were obtained from ThermoFisher Scientific (Waltham, MA, USA). […] Membrane fractions expressing both P450 and CPR of E. coli were prepared as described previously and were used for the catalytic activity assays. […] The reaction was started by adding NGS and the incubation was continued for the indicated time at 37 °C. Incubation was then stopped by adding ice-chilled ethyl acetate (0.50 mL) and omeprazole (IS) was added to a final concentration of 20 μM. […] Phenomenex, Torrance, CA, USA). The products formed were analyzed by HPLC at […]. The HPLC profile of the authentic chemicals (i.e., tenatoprazole, tenatoprazole sulfide, and their metabolites) were used to identify the major metabolites of tenatoprazole and tenatoprazole sulfide produced by the recombinant P450s. […] The kinetic parameters (kcat and Km) were determined by using a Michaelis-Menten nonlinear regression analysis with GraphPad Prism (GraphPad Software, San Diego, CA, USA). To further characterize the nature of the metabolites, the reaction mixtures were additionally analyzed by a 6530 Quadrupole Time-of-Flight (QTOF) mass spectrometer (MS) (Agilent, Santa Clara, CA, USA) coupled with a 1290 Infinity ultra-performance liquid chromatography (UPLC) system (Agilent). […] The reaction was initiated by adding NGS at 37 °C. […] Then, the upper layer was transferred to a glass tube and dried under nitrogen stream. The residues were reconstituted in 0.30 mL acetonitrile, then 1 μL samples were injected into an LC-MS system. The analytical column was a Hypersil Gold C18 column (100 × 2.1 mm, 1.9 μm; ThermoFisher Scientific). […] A gradient program was used for HPLC separation, and the flow rate was 0.4 mL/min. […] The column and autosampler were kept at 35 °C and 4 °C, respectively, during analysis. Electrospray ionization was performed in the positive ion mode. The sheath gas flow rate was 8 L/min. The flow rate of drying gas was 12 L/min at 350 °C, and the nebulizer's temperature was set at 350 °C. The capillary voltage was 4500 V in the positive mode, and that of the fragmentor was 175 V. Data acquisition were done over a scan range from 50 m/z to 1000 m/z in the centroid mode. A reference compound (C18H18O6N3P3F24; [M+H]^+ = 922.0098) was used to correct all of the masses. Tandem mass spectrometry (MS/MS) data were acquired in profile mode via autoanalysis for structural characterization with 30 eV of the collision energy.

human CYP2C19 = biological target: T3, human CYP2C19 (Homo sapiens, UniProt P33261); assay: Steady-state kinetics of tenatoprazole oxidation by recombinant CYP2C19
T3 construct: made in house; host or cells: Escherichia coli (membrane fractions)
Method: Pooled liver microsomes from human samples were obtained from ThermoFisher Scientific (Waltham, MA, USA). […] Membrane fractions expressing both P450 and CPR of E. coli were prepared as described previously and were used for the catalytic activity assays. […] The reaction was started by adding NGS and the incubation was continued for the indicated time at 37 °C. Incubation was then stopped by adding ice-chilled ethyl acetate (0.50 mL) and omeprazole (IS) was added to a final concentration of 20 μM. […] Phenomenex, Torrance, CA, USA). The products formed were analyzed by HPLC at […]. […] The kinetic parameters (kcat and Km) were determined by using a Michaelis-Menten nonlinear regression analysis with GraphPad Prism (GraphPad Software, San Diego, CA, USA).

[1] = 5′-OH tenatoprazole formation from tenatoprazole

T3 sequence (P33261 whole entry): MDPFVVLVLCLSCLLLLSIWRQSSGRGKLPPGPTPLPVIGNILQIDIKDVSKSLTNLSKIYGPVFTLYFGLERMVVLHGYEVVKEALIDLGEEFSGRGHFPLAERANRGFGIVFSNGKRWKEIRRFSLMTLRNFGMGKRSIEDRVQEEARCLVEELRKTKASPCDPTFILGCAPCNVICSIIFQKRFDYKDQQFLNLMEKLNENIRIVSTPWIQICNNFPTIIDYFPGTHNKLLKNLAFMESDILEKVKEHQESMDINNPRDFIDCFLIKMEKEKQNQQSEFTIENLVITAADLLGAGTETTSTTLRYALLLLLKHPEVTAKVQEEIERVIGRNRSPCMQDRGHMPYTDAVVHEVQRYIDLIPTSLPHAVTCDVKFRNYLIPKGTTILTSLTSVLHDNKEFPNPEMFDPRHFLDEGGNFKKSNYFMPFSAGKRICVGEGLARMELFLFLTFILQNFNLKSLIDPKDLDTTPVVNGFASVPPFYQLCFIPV
T2 sequence (P08684 whole entry): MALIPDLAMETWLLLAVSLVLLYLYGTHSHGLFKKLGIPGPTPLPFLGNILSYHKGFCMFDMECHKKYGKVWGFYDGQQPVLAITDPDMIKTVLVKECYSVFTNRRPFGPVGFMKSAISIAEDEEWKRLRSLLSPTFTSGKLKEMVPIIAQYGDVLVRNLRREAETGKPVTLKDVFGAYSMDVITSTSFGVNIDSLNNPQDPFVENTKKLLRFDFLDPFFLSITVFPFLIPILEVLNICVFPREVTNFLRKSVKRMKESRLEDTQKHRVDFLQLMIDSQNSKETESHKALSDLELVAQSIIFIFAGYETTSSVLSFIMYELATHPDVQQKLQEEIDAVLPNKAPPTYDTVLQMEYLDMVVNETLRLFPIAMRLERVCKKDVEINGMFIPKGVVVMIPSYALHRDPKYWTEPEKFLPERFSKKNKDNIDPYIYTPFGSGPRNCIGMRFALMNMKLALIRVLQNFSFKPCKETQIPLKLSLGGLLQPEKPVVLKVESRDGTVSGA

Row | Compound | formation rate of metabolite (CYP1B1) | kcat of product formation (human CYP3A4) | fold higher Km of CYP3A4 than CYP2C19 (human CYP3A4; [1]) | fold higher catalytic efficiency of CYP2C19 than CYP3A4 (human CYP2C19; [1]) | kcat of product formation (human CYP2C19; substrate tenatoprazole (1–500 μM), recombinant CYP2C19 0.20 μM, 37 °C, 5 min, label = product formed)
1 | COc1ccc2[nH]c(S(=O)(=O)Cc3ncc(C)c(OC)c3C)nc2n1 [tenatoprazole sulfone] | < 0.05 nmol product/min/nmol P450 | 0.045 s⁻¹ and 0.045 ± 0.013 s⁻¹ |  |  | 
2 | COc1ccc2[nH]c([S+]([O-])Cc3ncc(CO)c(OC)c3C)nc2n1 (stereo not shown) [5′-OH tenatoprazole, 5′-hydroxy tenatoprazole] | < 0.05 nmol product/min/nmol P450 | 0.105 s⁻¹ and 0.105 ± 0.005 s⁻¹ | 100 fold | 63 fold | 0.0667 s⁻¹ and 0.0667 ± 0.0033 s⁻¹
